In PubChem BioAssay AID2252 (Southern Research Specialized Biocontainment Screening …, 2010):

The molecules below were run on THP-1 viability, CellTiter-Glo luminescence, 72 h (assay: PubChem AID 2252).
For `CC(=O)NC(c1cccs1)c1cc([N+](=O)[O-])c2cccnc2c1O` (configuration not stated), the EC50 was 10.5 µM.
With `CN1CCN(c2ccccc2NC(=O)c2sc3ccccc3c2Cl)CC1` the EC50 was 24.9 µM.
Work on `O=[N+]([O-])c1cc(Cl)cc(/C=N/NC(=S)Nc2ccc(S(=O)(=O)N3CCOCC3)cc2)c1O` yielded an EC50 of 27.1 µM.
Molecule `CCN1CCCC1CNC(=O)C1CCN(Cc2nc(-c3cccc(Br)c3)oc2C)CC1` (configuration not stated) has an EC50 of 12.4 µM.
With `O=C(C[n+]1cn(C(F)F)c2ccccc21)c1ccc(Br)cc1` the EC50 was 35.8 µM.
Work on `OC(CN1CCCCC1)Cn1c2ccccc2c2cc(Br)ccc21` (configuration not stated) yielded an EC50 of 17.5 µM.
For `CCCN(C(=O)CSc1nc2ccccc2n1CC)C1CCS(=O)(=O)C1` (configuration not stated), the EC50 was 14.8 µM.
For `Cc1nc2ccccc2nc1N/N=C/c1ccc(O)cc1O`, the EC50 was 3.62 µM.
In the case of `O=C(N/N=C/c1ccc([N+](=O)[O-])s1)c1cccnc1`, the EC50 is reported as 14.9 µM.
Work on `OCCN1CCN(CCCN2c3ccccc3Sc3ccc(Cl)cc32)CC1` yielded an EC50 of 12.5 µM.
Work on `CCOC(=O)C1=C(c2ccccc2)NC(N)=NC1c1ccc(OCc2ccc(C(=O)OC)cc2)cc1` (configuration not stated) yielded an EC50 of 7.56 µM.
Work on `CC1CC(C)CN(C(=O)c2ccc(NC(=O)c3ccc(=O)[nH]c3)cc2)C1` (configuration not stated) yielded an EC50 of 33 µM.
For `O=C(NCc1ccco1)C1CCN(C(=O)c2cc3sccc3n2Cc2ccc(Cl)cc2)CC1`, the EC50 was 27.8 µM.
Molecule `CN1CCN(C(c2ccc(C(F)(F)F)cc2)c2ccc3cccnc3c2O)CC1` (configuration not stated) has an EC50 of 1.36 µM.
`CCCCCCCCNC(C)C(O)c1ccc(SC(C)C)cc1` (configuration not stated) was tested, and the EC50 was 3.57 µM.
`Cc1ccc(C(=O)NNC(=S)NC(=O)c2ccccc2)cc1` gave an EC50 of 8.09 µM.
With `COc1ccc(NC(=O)CN(C)S(=O)(=O)c2ccc(Cl)cc2)cc1Cl` the EC50 was less than 0.1 µM.
`CCCC(=O)NC(c1ccco1)c1cc([N+](=O)[O-])c2cccnc2c1O` (configuration not stated) gave an EC50 of 22.9 µM.
With `Cc1oc2c(O)c(O)ccc2c(=O)c1-c1ccccc1` the EC50 was 24.9 µM.
`Cc1ccc2c(c1)sc(-c1ccc(N(C)C)cc1)[n+]2C` was tested, and the EC50 was 4.02 µM.
`CC1(C)N=C(N)NC(Nc2ccc(Br)cc2)=N1` gave an EC50 of 7.06 µM.
In the case of `COc1cccc(CNC23CC4CC(CC(C4)C2)C3)c1OCc1ccccc1`, the EC50 is reported as 22.3 µM.
`CCOC(=O)c1c(C)sc2c1N(C(C)=O)c1cc(Cl)ccc1S2` gave an EC50 of 44.1 µM.
In the case of `CCc1ccc2c(c1)CCCN2C(=O)c1ccccc1C(=O)O`, the EC50 is reported as 38.3 µM.
Molecule `CCOC(=O)COc1cccc2c(=O)n(CC(=O)N3CCCCC3)ccc12` has an EC50 of 24.5 µM.
Work on `CCN(CC)c1ccc(CNc2nc3ccccc3n2CCN2CCCCC2)cc1` yielded an EC50 of 16.5 µM.
Work on `COc1ccc(C(=O)NC(=S)NNC(=O)c2cccc(C)c2)cc1` yielded an EC50 of 18.2 µM.
Work on `Cc1nc2ccccn2c1C(=O)N/N=C/c1ccc([N+](=O)[O-])o1` yielded an EC50 of 13.9 µM.
`Cc1cc([N+](=O)[O-])cc(/C=N/n2c(C)nc3ccccc3c2=O)c1O` was tested, and the EC50 was 28.2 µM.
Molecule `COc1cc(CNCCc2c[nH]c3ccccc23)ccc1OCc1ccc(F)cc1` has an EC50 of 6.34 µM.
`Cc1ccc(C(c2cc(Cl)c3cccnc3c2O)N2CCN(C)CC2)cc1` (configuration not stated) was tested, and the EC50 was 4.95 µM.
Molecule `Cc1cc(C)c(NC(=O)C[N+](C)(C)CC(O)COc2cccc3ccccc23)c(C)c1` (configuration not stated) has an EC50 of 12.8 µM.
`O=C(C[n+]1cc(Br)cc2ccccc21)c1ccc(F)cc1` showed an EC50 of less than 0.1 µM.
Molecule `Cn1ncnc2c(=O)n(C)c(=O)nc1-2` has an EC50 of 1.38 µM.
For `Cc1nc(N=Nc2ccc(O)cc2)n[nH]1`, the EC50 was 28.2 µM.
In the case of `Cc1[nH]c2ccc(OC(F)(F)F)cc2c1CCNCc1ccc(Cl)cc1`, the EC50 is reported as 4.99 µM.
In the case of `O=C1C(=O)c2ccccc2-c2ccccc21`, the EC50 is reported as 2.22 µM.
For `Clc1ccc2c(c1)c1cc(Cl)ccc1n2CN1CCOCC1`, the EC50 was 27.2 µM.
In the case of `O=C(CCc1ccccc1)NNC(=S)NC(=O)c1ccccc1`, the EC50 is reported as 10.9 µM.
`Cc1c(CCOC(=O)C2C3CC4CC(C3)CC2C4)sc[n+]1CC(=O)c1ccc(Br)cc1` (configuration not stated) showed an EC50 of 6.34 µM.
With `CCOc1ccc(Nc2c3ccccc3nc3ccccc23)cc1` the EC50 was 2.49 µM.
Work on `Cc1cccc(/C(N)=N/OC(=O)N2CCOCC2)c1` yielded an EC50 of 8.03 µM.
`CC1(C)N=C(N)N=C(N)N1c1ccc(Oc2ccc(Cl)cc2)c(Cl)c1` was tested, and the EC50 was 2.45 µM.
With `O=C(/C=C/c1ccccc1)NC(=S)NNC(=O)c1cnccn1` the EC50 was 4.6 µM.
For `O=C(c1ccccc1)c1c2c(cc3sc4ccccc4[n+]13)-c1cccc3cccc-2c13`, the EC50 was 1.36 µM.
With `CCCCNCCCOc1cccc(Cl)c1Cl` the EC50 was 28.2 µM.
In the case of `Cc1c(C(=O)Nc2ccncc2)sc2nc(-c3ccc(F)cc3)cn12`, the EC50 is reported as 19.6 µM.
